Earlier results on 6 compounds are cited in article PMC8468386, “Rapid Identification of Potential Drug Candidates from Multi-Million Compounds’ Repositories. Combination of 2D Similarity Search with 3D Ligand/Structure Based Methods and In Vitro Screening” (Molecules, 2021).

One data set deals with PDE5. Set-up: method as in PMID 21947759. As to conditions: PDE5 inhibitor first round hit compounds.
For another data set, the system named is Complement Component C1s. Set-up: method as in PMID 31600984. As to conditions: C1s inhibitors.

Broadly, the IC50 is the concentration needed to halve the response being measured. For `COC(=O)c1sccc1NC(=O)N1CCc2c([nH]c3ccccc23)C1c1ccc(OC)cc1` (stereo not drawn) [compound 4], the IC50 with PDE5 is 190 nM.

As for `CCc1ccccc1OCc1nc2ccc(S(=O)(=O)N3CCOCC3)cc2[nH]1` [compound 1], the IC50 with PDE5 is 3650 nM.

For `Cn1c(=O)c2c(nc(Oc3cccc(C=NO)c3)n2Cc2ccccc2Cl)n(C)c1=O` [compound 2], in the data set with PDE5, the IC50 is 1990 nM.

As to `Cc1sc2nc(-c3ccco3)oc(=O)c2c1C` [#17], the IC50 in the data set on Complement Component C1s is 549 nM.

Turning to `COc1ccc(C2c3c(n(C)c4ccccc34)C(=O)N2CC(=O)N2CCN(c3ncccn3)CC2)cc1` (stereo not drawn) [compound 5], in the data set with PDE5, the IC50 is 6740 nM.

For `O=c1nc(-c2cccs2)oc2cc(Cl)ccc12` [#21], the IC50 in the data set with Complement Component C1s is 241 nM.
